Here are results for 17 compounds from US10829478B2, “5-[3-[piperazin-1-yl]-3-oxo-propyl]-imidazolidine-2,4-dione derivatives as ADAMTS 4 and 5 inhibitors for treating e.g. osteoarthritis” (Galapagos NV, priority 2016, dated 2020).

Each structure is given as a SMILES string. Where two headings read alike, the source gives them in different places.

A word on the IC50: it is the point on the concentration scale where inhibition reaches its midpoint.

One experiment addresses human MMP14 (Homo sapiens (Human), UniProt P50281). As to the kind of experiment: hMMP14 assay (390 MMP FRET Substrate I). Format: biochemical. The settings on record: human MMP14 (Biomol), read-out: hMMP-14 potency IC50.
The target in a further experiment is human ADAMTS4 (Homo sapiens (Human), UniProt O75173). In words: hADAMTS-4 TBIS-1 cleavage assay, Protocol 2. Format: biochemical.
Sequence of human ADAMTS4 (O75173 213-837): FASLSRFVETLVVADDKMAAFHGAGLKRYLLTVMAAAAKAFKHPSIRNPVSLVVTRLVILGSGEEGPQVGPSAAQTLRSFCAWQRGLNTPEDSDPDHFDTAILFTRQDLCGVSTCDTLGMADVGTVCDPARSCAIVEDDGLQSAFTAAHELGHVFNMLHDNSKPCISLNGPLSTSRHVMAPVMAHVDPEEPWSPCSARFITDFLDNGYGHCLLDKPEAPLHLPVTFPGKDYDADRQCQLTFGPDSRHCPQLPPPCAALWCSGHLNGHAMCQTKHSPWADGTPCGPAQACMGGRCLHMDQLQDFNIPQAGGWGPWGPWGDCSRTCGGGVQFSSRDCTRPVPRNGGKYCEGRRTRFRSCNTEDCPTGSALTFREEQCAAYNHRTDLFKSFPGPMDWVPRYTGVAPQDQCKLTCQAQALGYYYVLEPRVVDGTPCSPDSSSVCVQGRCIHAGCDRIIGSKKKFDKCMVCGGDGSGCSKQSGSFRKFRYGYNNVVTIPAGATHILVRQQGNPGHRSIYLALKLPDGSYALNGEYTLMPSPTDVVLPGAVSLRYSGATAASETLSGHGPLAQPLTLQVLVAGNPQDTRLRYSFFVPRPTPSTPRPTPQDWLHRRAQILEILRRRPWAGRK
Another experiment addresses human ADAMTS-5 (Homo sapiens (Human), UniProt Q9UNA0). In words: hADAMTS-5 TBIS-1 cleavage assay, Protocol 3. The settings on record: 90 min at 37° C., read-out: hADAMTS-5 potency IC50. It is filed as biochemical.
The target in a further experiment is human MMP13 (Homo sapiens (Human), UniProt P45452). As to the kind of experiment: hMMP13 assay, Protocol 2 (390 MMP FRET Substrate I, Enzo enzyme). The following applies: Protocol 2, human MMP13 (Enzo Life Sciences), read-out: hMMP-13 potency IC50. It is filed as biochemical. As to the method: Human MMP13 is preactivated by incubated the enzyme in the same buffer complemented with 1 mM freshly prepared p-Aminophenylmercuric acetate (AMPA) for 1 h at 37° C.

For the next experiment, the target named is human TACE (Homo sapiens (Human), UniProt P78536). As to the kind of experiment: biochemical.
Sequence of human TACE (P78536 215-671): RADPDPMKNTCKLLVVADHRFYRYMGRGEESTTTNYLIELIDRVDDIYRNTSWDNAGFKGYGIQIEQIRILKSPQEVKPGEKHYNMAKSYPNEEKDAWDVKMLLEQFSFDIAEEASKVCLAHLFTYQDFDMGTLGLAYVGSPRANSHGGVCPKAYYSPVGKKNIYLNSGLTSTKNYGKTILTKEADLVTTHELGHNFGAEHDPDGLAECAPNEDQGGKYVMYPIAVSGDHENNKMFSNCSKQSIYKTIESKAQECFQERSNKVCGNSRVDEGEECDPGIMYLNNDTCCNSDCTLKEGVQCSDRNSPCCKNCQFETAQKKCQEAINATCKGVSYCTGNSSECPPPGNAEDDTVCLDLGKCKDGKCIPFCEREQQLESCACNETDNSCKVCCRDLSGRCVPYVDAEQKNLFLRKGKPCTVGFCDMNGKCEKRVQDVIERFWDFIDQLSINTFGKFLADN
Another experiment concerns the target human ADAMTS6 (Homo sapiens (Human), UniProt Q9UKP5). As to the kind of experiment: hADAMTS-6 fluorescent based protease assay (520 MMP FRET substrate XII). Format: biochemical. The following applies: 37° C. for 2 h; read-out: hADAMTS-6 potency IC50. Summed up:
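ADAMTS6 (0.73 nM final) in 25 mM Tris pH 8.0, 0.05% CHAPS, 2.5 mM CaCl2 with compound dilution series (top 20 μM, 1/5 steps). Reaction started with 520 MMP FRET Substrate XII, incubated 2 h at 37 °C. Substrate cleavage read by fluorescence ex485/em530; IC50 determined.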

Setting [1] is: Protocol 2, 180 min at 37° C., read-out: ADAMTS4 potency IC50.

Sequence of human ADAMTS6 (Q9UKP5 other isoform, or with tags, fused parts or gaps): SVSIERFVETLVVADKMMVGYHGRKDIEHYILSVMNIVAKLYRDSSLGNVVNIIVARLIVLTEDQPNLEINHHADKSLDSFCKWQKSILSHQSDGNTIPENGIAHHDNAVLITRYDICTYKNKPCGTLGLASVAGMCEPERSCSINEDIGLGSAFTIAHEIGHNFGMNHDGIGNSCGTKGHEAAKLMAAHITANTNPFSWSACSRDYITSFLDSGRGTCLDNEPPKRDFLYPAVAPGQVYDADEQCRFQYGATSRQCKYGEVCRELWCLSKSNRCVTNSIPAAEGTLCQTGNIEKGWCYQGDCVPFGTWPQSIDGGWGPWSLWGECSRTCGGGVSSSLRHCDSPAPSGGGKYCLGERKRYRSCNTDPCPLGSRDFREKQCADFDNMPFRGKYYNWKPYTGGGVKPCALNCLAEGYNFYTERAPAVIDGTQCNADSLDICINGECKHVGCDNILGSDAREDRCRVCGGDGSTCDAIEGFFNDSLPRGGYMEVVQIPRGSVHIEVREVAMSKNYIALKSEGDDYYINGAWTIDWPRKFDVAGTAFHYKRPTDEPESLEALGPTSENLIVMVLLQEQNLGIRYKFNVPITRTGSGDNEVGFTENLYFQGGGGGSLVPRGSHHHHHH
Sequence of human ADAMTS-5 (Q9UNA0 262-930): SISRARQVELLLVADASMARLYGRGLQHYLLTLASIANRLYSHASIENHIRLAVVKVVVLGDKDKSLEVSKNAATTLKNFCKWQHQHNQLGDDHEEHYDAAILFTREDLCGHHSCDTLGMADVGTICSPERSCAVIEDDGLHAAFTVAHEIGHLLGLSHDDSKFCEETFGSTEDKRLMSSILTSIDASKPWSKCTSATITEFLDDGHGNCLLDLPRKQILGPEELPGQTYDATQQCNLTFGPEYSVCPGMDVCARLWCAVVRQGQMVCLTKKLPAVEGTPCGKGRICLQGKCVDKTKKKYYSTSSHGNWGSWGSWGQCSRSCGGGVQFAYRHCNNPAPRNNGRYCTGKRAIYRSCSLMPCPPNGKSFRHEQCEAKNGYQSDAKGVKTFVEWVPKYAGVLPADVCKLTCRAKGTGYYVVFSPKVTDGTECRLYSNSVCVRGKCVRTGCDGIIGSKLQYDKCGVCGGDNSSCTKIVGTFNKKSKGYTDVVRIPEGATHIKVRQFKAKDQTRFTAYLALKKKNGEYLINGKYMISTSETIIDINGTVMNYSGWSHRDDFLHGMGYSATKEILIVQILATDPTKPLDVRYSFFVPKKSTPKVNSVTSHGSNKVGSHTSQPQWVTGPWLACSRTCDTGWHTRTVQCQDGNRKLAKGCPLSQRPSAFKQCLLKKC
Experimental for human ADAMTS-5: The reaction is initiated by adding to the assay plate TBIS-1 (10 μL, 4.5 μM, Anaspec) in the same buffer.
Finally, the fluorescence is read on the Envision (Perkin Elmer) after an incubation of 90 min at 37° C. (Excitation 485 nm, emission 530).
Experimental for human MMP14: The basis for the assay is the cleavage of the substrate 390 MMP FRET Substrate I (Anaspec Cat #AS-27076) by human MMP14 (Biomol, Cat #SE-259).
The reaction is initiated by adding to the assay plate 390 MMP FRET Substrate I (10 μL, 2.5 μM) in the same buffer.
Finally, the fluorescence is read on the Envision (Perkin Elmer) after an incubation of 60 min at room temperature (Excitation 485 nm, Emission 530).
Experimental for human TACE: Finally, the fluorescence is read on the Envision (Perkin Elmer) after an incubation of 75 min at room temperature (Excitation 485 nm, Emission 530).

On to `CCc1cc(N2CCN(C(=O)CC[C@@]3(C)NC(=O)NC3=O)C[C@@H]2C)ccc1Cl` [Cpd 75, (5R)-5-[3-[(3 S)-4-(4-chloro-3-ethyl-phenyl)-3-methyl-piperazin-1-yl]-3-oxo-propyl]-5-methyl-imidazolidine-2,4-dione], for which the IC50 on human MMP14 is more than 100 nM; on human ADAMTS4 (setting [1]) it was more than 100 nM; at human ADAMTS-5, 50 to 100 nM; at human MMP13, more than 100 nM; on human TACE, more than 100 nM; at human ADAMTS6, 0.001 to 25 nM.

On to `CCOc1cc(N2CCN(C(=O)CC[C@@]3(C)NC(=O)NC3=O)CC2)cc(OC)c1Cl` [Cpd 79, (5R)-5-[3-[4-(4-chloro-3-ethoxy-5-methoxy-phenyl)piperazin-1-yl]-3-oxo-propyl]-5-methyl-imidazolidine-2,4-dione], for which the half-maximal inhibitory concentration (IC50) at human MMP14 was more than 100 nM; on human ADAMTS4 (setting [1]), more than 100 nM; at human ADAMTS-5 it was more than 100 nM; at human MMP13, more than 100 nM; against human TACE, more than 100 nM; on human ADAMTS6, 0.001 to 25 nM.

For the compound `CCOc1cc(N2CCN(C(=O)CC[C@@]3(C)NC(=O)NC3=O)C[C@@H]2C)cc(OC)c1Cl` [Cpd 80, (5R)-5-[3-[(3 S)-4-(4-chloro-3-ethoxy-5-methoxy-phenyl)-3-methyl-piperazin-1-yl]-3-oxo-propyl]-5-methyl-imidazolidine-2,4-dione], the IC50 on human MMP14 is more than 100 nM; at human ADAMTS4 (setting [1]), more than 100 nM; at human ADAMTS-5 it was more than 100 nM; at human MMP13 it was more than 100 nM; against human TACE, more than 100 nM; at human ADAMTS6 it was 0.001 to 25 nM.

Consider `COc1cc(N2CCN(C(=O)CC[C@@]3(C)NC(=O)NC3=O)C[C@@H]2C)cc(OC)c1F` [Cpd 89, (5R)-5-[3-[(3 S)-4-(4-fluoro-3,5-dimethoxy-phenyl)-3-methyl-piperazin-1-yl]-3-oxo-propyl]-5-methyl-imidazolidine-2,4-dione], for which the 50% inhibitory concentration (IC50) at human MMP14 was more than 100 nM; at human ADAMTS4 (setting [1]), more than 100 nM; on human ADAMTS-5, more than 100 nM; on human MMP13, more than 100 nM; against human TACE, more than 100 nM; at human ADAMTS6 it was 0.001 to 25 nM.

Consider `COc1cc(N2CCN(C(=O)CC[C@@]3(C)NC(=O)NC3=O)C[C@@H]2C)cc(Cl)c1Cl` [Cpd 90, (5R)-5-[3-[(3 S)-4-(3,4-dichloro-5-methoxy-phenyl)-3-methyl-piperazin-1-yl]-3-oxo-propyl]-5-methyl-imidazolidine-2,4-dione], for which the 50% inhibitory concentration (IC50) at human MMP14 is more than 100 nM; on human ADAMTS4, 25 to 50 nM; on human ADAMTS-5 it was 0.001 to 25 nM; at human MMP13 it was more than 100 nM; against human TACE, more than 100 nM; on human ADAMTS6 it was 0.001 to 25 nM.

Take `COc1cc(N2CCN(C(=O)CC[C@@]3(C)NC(=O)NC3=O)C[C@@H]2C)ccc1F` [Cpd 93, (5R)-5-[3-[(3 S)-4-(4-fluoro-3-methoxy-phenyl)-3-methyl-piperazin-1-yl]-3-oxo-propyl]-5-methyl-imidazolidine-2,4-dione]: the 50% inhibitory concentration (IC50) on human MMP14 was more than 100 nM; at human ADAMTS4 (setting [1]), more than 100 nM; on human ADAMTS-5, more than 100 nM; on human MMP13, more than 100 nM; against human TACE, more than 100 nM; on human ADAMTS6, 0.001 to 25 nM.

Take `COc1cc(Cl)cc(N2CCN(C(=O)CC[C@@]3(C)NC(=O)NC3=O)C[C@@H]2C)c1` [Cpd 96, (5R)-5-[3-[(3 S)-4-(3-chloro-5-methoxy-phenyl)-3-methyl-piperazin-1-yl]-3-oxo-propyl]-5-methyl-imidazolidine-2,4-dione]: the IC50 is more than 100 nM at human MMP14; more than 100 nM at human ADAMTS4 (setting [1]); more than 100 nM at human ADAMTS-5; more than 100 nM on human MMP13; more than 100 nM at human TACE; 0.001 to 25 nM at human ADAMTS6.

On to `COc1cc(N2CCN(C(=O)CC[C@@]3(C)NC(=O)NC3=O)C[C@@H]2C)cc(N(C)C)c1Cl` [Cpd 99, (5R)-5-[3-[(3S)-4-[4-chloro-3-(dimethylamino)-5-methoxy-phenyl]-3-methyl-piperazin-1-yl]-3-oxo-propyl]-5-methyl-imidazolidine-2,4-dione], for which the 50% inhibitory concentration (IC50) is more than 100 nM at human MMP14; more than 100 nM on human ADAMTS4 (setting [1]); more than 100 nM on human ADAMTS-5; more than 100 nM at human MMP13; more than 100 nM on human TACE; 0.001 to 25 nM on human ADAMTS6.

Take `COc1cc(N2CCN(C(=O)CC[C@@]3(C)NC(=O)NC3=O)C[C@@H]2C)cc(C)c1Cl` [Cpd 105, (5R)-5-[3-[(3S)-4-(4-chloro-3-methoxy-5-methyl-phenyl)-3-methyl-piperazin-1-yl]-3-oxo-propyl]-5-methyl-imidazolidine-2,4-dione]: the IC50 at human MMP14 was more than 100 nM; against human ADAMTS4, 50 to 100 nM; on human ADAMTS-5 it was more than 100 nM; on human MMP13, more than 100 nM; at human TACE it was more than 100 nM; at human ADAMTS6 it was 0.001 to 25 nM.

Turning to `CCc1cc(N2CCN(C(=O)CC[C@@]3(C)NC(=O)NC3=O)C[C@@H]2C)cc(OC)c1Cl` [Cpd 106, (5R)-5-[3-[(3 S)-4-(4-chloro-3-ethyl-5-methoxy-phenyl)-3-methyl-piperazin-1-yl]-3-oxo-propyl]-5-methyl-imidazolidine-2,4-dione], the 50% inhibitory concentration (IC50) is more than 100 nM on human MMP14; more than 100 nM at human ADAMTS4 (setting [1]); more than 100 nM at human ADAMTS-5; more than 100 nM at human MMP13; more than 100 nM at human TACE; 0.001 to 25 nM on human ADAMTS6.

In the case of `CC[C@H]1CN(C(=O)CC[C@@]2(C)NC(=O)NC2=O)CCN1c1ccc(Cl)c(OC)c1` [Cpd 107, (5R)-5-[3-[(3 S)-4-(4-chloro-3-methoxy-phenyl)-3-ethyl-piperazin-1-yl]-3-oxo-propyl]-5-methyl-imidazolidine-2,4-dione], the IC50 at human MMP14, on human ADAMTS4 (setting [1]), at human ADAMTS-5, on human MMP13, on human TACE and on human ADAMTS6 was more than 100 nM in each case.

With `COc1cc(N2CCN(C(=O)CC[C@@]3(C)NC(=O)NC3=O)C[C@@H]2C(C)C)ccc1Cl` [Cpd 109, (5R)-5-[3-[(3S)-4-(4-chloro-3-methoxy-phenyl)-3-isopropyl-piperazin-1-yl]-3-oxo-propyl]-5-methyl-imidazolidine-2,4-dione], the IC50 at human MMP14, on human ADAMTS4 (setting [1]), on human ADAMTS-5, on human MMP13, at human TACE and on human ADAMTS6 was more than 100 nM each time.

Regarding `COc1cc(N2CCN(C(=O)CC[C@@]3(C)NC(=O)NC3=O)CC2)cc(C)c1Cl` [Cpd 112, (5R)-5-[3-[4-(4-chloro-3-methoxy-5-methyl-phenyl)piperazin-1-yl]-3-oxo-propyl]-5-methyl-imidazolidine-2,4-dione], the IC50 on human MMP14 was more than 100 nM; on human ADAMTS4 it was 50 to 100 nM; on human ADAMTS-5 it was more than 100 nM; on human MMP13, more than 100 nM; at human TACE, more than 100 nM; on human ADAMTS6, 0.001 to 25 nM.

For `CCc1cc(N2CCN(C(=O)CC[C@@]3(C)NC(=O)NC3=O)CC2)cc(OC)c1Cl` [Cpd 115, (5R)-5-[3-[4-(4-chloro-3-ethyl-5-methoxy-phenyl)piperazin-1-yl]-3-oxo-propyl]-5-methyl-imidazolidine-2,4-dione], the IC50 on human MMP14 was more than 100 nM; at human ADAMTS4 (setting [1]), more than 100 nM; at human ADAMTS-5, more than 100 nM; on human MMP13, more than 100 nM; at human TACE it was more than 100 nM; at human ADAMTS6 it was 0.001 to 25 nM.

On to `COc1cc(N2CCN(C(=O)CC[C@@]3(C)NC(=O)NC3=O)CC2C(F)(F)F)ccc1Cl` (stereo partly drawn) [Cpd 118, (5R)-5-[3-[4-(4-chloro-3-methoxy-phenyl)-3-(trifluoromethyl)piperazin-1-yl]-3-oxo-propyl]-5-methyl-imidazolidine-2,4-dione], for which the IC50 is more than 100 nM on human MMP14; more than 100 nM on human ADAMTS4 (setting [1]); more than 100 nM on human ADAMTS-5; more than 100 nM at human MMP13; more than 100 nM on human TACE; 0.001 to 25 nM on human ADAMTS6.

Consider `COc1cc(N2CCN(C(=O)CC[C@@]3(C)NC(=O)NC3=O)C[C@@H]2C)cc(F)c1Cl` [Cpd 119, (5R)-5-[3-[(3 S)-4-(4-chloro-3-fluoro-5-methoxy-phenyl)-3-methyl-piperazin-1-yl]-3-oxo-propyl]-5-methyl-imidazolidine-2,4-dione], for which the IC50 at human MMP14 was more than 100 nM; at human ADAMTS4 (setting [1]), more than 100 nM; on human ADAMTS-5, 0.001 to 25 nM; at human MMP13, more than 100 nM; on human TACE, more than 100 nM; at human ADAMTS6, 0.001 to 25 nM.

As for `COc1cc(N2CCN(C(=O)[C@@H](C)C[C@@]3(C)NC(=O)NC3=O)CC2)cc(F)c1Cl` [Cpd 122, (5R)-5-[(2S)-3-[4-(4-chloro-3-fluoro-5-methoxy-phenyl)piperazin-1-yl]-2-methyl-3-oxo-propyl]-5-methyl-imidazolidine-2,4-dione], the IC50 is more than 100 nM at human MMP14; 50 to 100 nM against human ADAMTS4; 0.001 to 25 nM on human ADAMTS-5; more than 100 nM at human MMP13; more than 100 nM against human TACE; 0.001 to 25 nM on human ADAMTS6.
